# In ChEMBL document CHEMBL5236634, “Membrane-Targeting Neolignan-Antimicrobial Peptide Mimic Conjugates to Combat Methicillin-Resistant Staphylococcus aureus (MRSA) Infections” (J Med Chem, 2022):
# The source made the active and inactive calls. No cut-off for these calls is given here.
# Assays:
# [1] = system: Staphylococcus aureus; assay: Inhibition of biofilm formation in Staphylococcus aureus ATCC 29213 at 64 ug/ml incubated for 24 hrs by crystalline violet staining based analysis; format: functional; details: dose 64.0 µg/ml
# [2] = system: Micrococcus luteus; assay: Antibacterial activity against Micrococcus luteus assessed as inhibition of bacterial growth incubated for 16 to 20 hrs by CLSI based microdilution method; format: functional; details: time 16-20 hrs
# [3] = system: Enterococcus faecalis; assay: Antibacterial activity against Enterococcus faecalis ATCC 29212 assessed as inhibition of bacterial growth incubated for 16 to 20 hrs by CLSI based microdilution method; format: functional; details: time 16-20 hrs
# [4] = system: Staphylococcus aureus; assay: Inhibition of biofilm formation in methicillin-resistant Staphylococcus aureus 15 at 64 ug/ml incubated for 24 hrs by crystalline violet staining based analysis; format: functional; details: dose 64.0 µg/ml
# [5] = system: Staphylococcus aureus; assay: Bactericidal activity against methicillin-resistant Staphylococcus aureus 15 at 4 to 8 times MIC measured at 24 hrs by time kill assay; format: functional, organism-based
# [6] = system: Staphylococcus aureus; assay: Inhibition of biofilm formation in methicillin-resistant Staphylococcus aureus 15 assessed as destruction of formed biofilm at 128 ug/ml incubated for 24 hrs by crystal violet staining based analysis relative to control; format: functional
# [7] = system: Staphylococcus aureus; assay: Induction of drug resistance in Staphylococcus aureus ATCC 29213 assessed as increase in MIC at 0.5 times MIC measured after 2 days by CLSI based microdilution method; format: functional, organism-based; details: time 2.0 day
# [8] = system: Cell membrane; assay: Disruption of membrane integrity in methicillin-resistant Staphylococcus aureus 15 assessed as increase in fluorescence intensity at 32 ug/ml measured immediately by Sytox green based fluorescence method; format: subcellular; details: dose 32.0 µg/ml
# [9] = system: Cell membrane; assay: Induction of membrane depolarization in methicillin-resistant Staphylococcus aureus 15 assessed as increase in fluorescence intensity at 32 ug/ml by DiSC3-5 dye based fluorescence method; format: subcellular; details: dose 32.0 µg/ml
# [10] = system: Escherichia coli; assay: Antibacterial activity against Escherichia coli ATCC 25922 assessed as inhibition of bacterial growth incubated for 16 to 20 hrs by CLSI based microdilution method; format: functional; details: time 16-20 hrs
# [11] = system: Salmonella enterica; assay: Antibacterial activity against Salmonella enterica 8389 assessed as inhibition of bacterial growth incubated for 16 to 20 hrs by CLSI based microdilution method; format: functional; details: time 16-20 hrs
# [12] = Hemolytic activity in sheep RBC incubated for 1 hr by absorbance based analysis; format: toxicity, cell-based, Ovis aries, Erythrocyte; details: sheep red blood cells
# [13] = system: Salmonella enterica; assay: Antibacterial activity against Salmonella enterica H9812 assessed as inhibition of bacterial growth incubated for 16 to 20 hrs by CLSI based microdilution method; format: functional; details: time 16-20 hrs
# [14] = Selectivity index, ratio of HC50 for hemolytic activity in sheep RBC to MIC for antibacterial activity against Staphylococcus aureus ATCC 29213; format: toxicity; details: sheep red blood cells
# [15] = system: Staphylococcus aureus; assay: Antibacterial activity against Staphylococcus aureus ATCC 29213 assessed as inhibition of bacterial growth incubated for 16 to 20 hrs by CLSI based microdilution method; format: functional; details: time 16-20 hrs
Structure (SMILES),inhibition [1],MIC [2] [µg/mL],MIC [3] [µg/mL],inhibition [4],Activity [5],inhibition at 128 µg/mL [6] [%],Activity [7],Activity [8],Activity [9],MIC [10] [µg/mL],MIC [11] [µg/mL],HC50 at 1 h [12] [µg/mL],MIC [13] [µg/mL],selectivity ratio [14],MIC [15] [µg/mL]
CN[C@H](CC(C)C)C(=O)N[C@H]1C(=O)N[C@@H](CC(N)=O)C(=O)N[C@H]2C(=O)N[C@H]3C(=O)N[C@H](C(=O)N[C@H](C(=O)O)c4cc(O)cc(O)c4-c4cc3ccc4O)[C@H](O)c3ccc(c(Cl)c3)Oc3cc2cc(c3O[C@@H]2O[C@H](CO)[C@@H](O)[C@H](O)[C@H]2O[C@H]2C[C@](C)(N)[C@H](O)[C@H](C)O2)Oc2ccc(cc2Cl)[C@H]1O [VANCOMYCIN],inactive,2,1,inactive,inactive,60,–,–,–,–,–,–,–,–,–
CCn1cc(C(=O)O)c(=O)c2cc(F)c(N3CCNCC3)cc21,–,–,–,–,–,–,Active,–,–,–,–,–,–,–,–
CC[C@H](C)[C@H](NC(=O)CN)C(=O)NCC(=O)N[C@@H](C)C(=O)N[C@H](C(=O)N[C@@H](CC(C)C)C(=O)N[C@@H](CCCCN)C(=O)N[C@H](C(=O)N[C@@H](CC(C)C)C(=O)N[C@H](C(=O)N[C@H](C(=O)NCC(=O)N[C@@H](CC(C)C)C(=O)N1CCC[C@H]1C(=O)N[C@@H](C)C(=O)N[C@@H](CC(C)C)C(=O)N[C@H](C(=O)N[C@@H](CO)C(=O)N[C@@H](Cc1c[nH]c2ccccc12)C(=O)N[C@H](C(=O)N[C@@H](CCCCN)C(=O)N[C@@H](CCCNC(=N)N)C(=O)N[C@@H](CCCCN)C(=O)N[C@@H](CCCNC(=N)N)C(=O)N[C@@H](CCC(N)=O)C(=O)N[C@@H](CCC(N)=O)C(N)=O)[C@@H](C)CC)[C@@H](C)CC)[C@@H](C)O)[C@@H](C)O)C(C)C)C(C)C,–,–,–,–,–,–,–,Active,Active,–,–,–,–,–,–
C=CCc1cccc(Oc2ccc(C(=O)CC)cc2)c1OCCCC[N+](C)(C)CC(=O)N1CCOCC1.[Br-],–,64,64,–,–,–,–,–,–,> 128,> 128,578,> 128,9,64
C=CCc1cccc(Oc2ccc(C(=O)CC)cc2)c1OCCC[N+](C)(C)CC(=O)N1CCOCC1.[Br-],–,64,64,–,–,–,–,–,–,> 128,> 128,674,64,21.1,32
C=CCc1cccc(Oc2ccc(C(=O)CC)cc2)c1OCC[N+](C)(C)CC(=O)N1CCOCC1.[Br-],–,16,64,–,–,–,–,–,–,128,64,> 1280,64,> 20,64
